Assay results from US9884832B2 (priority 2011, dated 2018).
Where two headings read alike, the source gives them in different places.

What was measured:
[1] = target: AM2 S31N (serine→asparagine mutation at residue 31 in the M2 protein) (Influenza A virus, UniProt P0DOF5, S31N); type: cell-based, influenza virus A/Udorn/72
[2] = target: AM2 V27A (valine→alanine mutation at residue 27 in the M2 protein) (Influenza A virus, UniProt P0DOF5, V27A); type: cell-based, influenza virus A/Udorn/72

Compound	S31N OOcyte Inhibition at 100 uM (%) [1]	V27A OOcyte Inhibition at 100 uM (%) [2]	S31N OOcyte Inhibition at 100 uM (%) ([1]; pH 5.5)	V27A OOcyte Inhibition at 100 uM (%) ([2]; pH 5.5)
CCc1ccc(CNC23CC4CC(CC(C4)C2)C3)s1 [Example 98a, N-((5-ethylthiophen-2-yl)methyl)adamantan-1-amine]	A (key: (A)=31-95%; (B)=0-30%)	B (key: (A)=31-95%; (B)=0-30%)	–	–
CC(C)(C)CC(C)(C)NCc1ccc(O)cc1O [Example 112, 4-[(1,1,3,3-Tetramethyl-butylamino)-methyl]-benzene-1,3-diol]	–	–	B (key: (A)=31-95%; (B)=0-30%)	A (key: (A)=31-95%; (B)=0-30%)
CSc1ccc(CNC2C3CC4CC(C3)CC2C4)cc1 (centres unmarked) [Example 103, Adamantan-2-yl-(4-methylsulfanyl-benzyl)-amine]	–	–	A (key: (A)=31-95%; (B)=0-30%)	A (key: (A)=31-95%; (B)=0-30%)
c1csc(-c2ccc(CNC34CC5CC(CC(C5)C3)C4)cc2)c1 [Example 44, N-(4-(Thiophen-2-yl)benzyl)adamantan-1-amine]	–	–	A (key: (A)=31-95%; (B)=0-30%)	B (key: (A)=31-95%; (B)=0-30%)
Oc1c(CNC23CC4CC(CC(C4)C2)C3)ccc2ccccc12 [Example 97, 2-(Adamantan-1-ylaminomethyl)-naphthalen-1-ol]	–	–	A (key: (A)=31-95%; (B)=0-30%)	B (key: (A)=31-95%; (B)=0-30%)
c1cnn(-c2ccc(CNC34CC5CC(CC(C5)C3)C4)cc2)c1 [Example 35, Adamantan-1-yl-(4-pyrazol-1-yl-benzyl)-amine]	–	–	B (key: (A)=31-95%; (B)=0-30%)	B (key: (A)=31-95%; (B)=0-30%)
FC(F)(F)c1ccc(CNC23CC4CC(CC(C4)C2)C3)cc1 [Example 5a, Adamantan-1-yl-(4-trifluoromethyl-benzyl)-amine]	B (key: (A)=31-95%; (B)=0-30%)	B (key: (A)=31-95%; (B)=0-30%)	–	–
Cc1ccc(C(C)NC23CC4CC(CC(C4)C2)C3)s1 (centres unmarked) [Example 97a, N-(1-(5-methylthiophen-2-yl)ethyl)adamantan-1-amine]	B (key: (A)=31-95%; (B)=0-30%)	B (key: (A)=31-95%; (B)=0-30%)	–	–
NC(=O)c1ccc(CNC23CC4CC(CC(C4)C2)C3)cc1 [Example 18, 4-(Adamantan-1-ylaminomethyl)-benzamide]	–	–	B (key: (A)=31-95%; (B)=0-30%)	B (key: (A)=31-95%; (B)=0-30%)
Cc1cc(CNC23CC4CC(CC(C4)C2)C3)ccc1O [Example 51, 4-(Adamantan-1-ylaminomethyl)-2-methyl-phenol]	–	–	B (key: (A)=31-95%; (B)=0-30%)	B (key: (A)=31-95%; (B)=0-30%)
Brc1nc(CNC23CC4CC(CC(C4)C2)C3)cs1 [Example 83a, N-((2-bromothiazol-4-yl)methyl)adamantan-1-amine]	A (key: (A)=31-95%; (B)=0-30%)	B (key: (A)=31-95%; (B)=0-30%)	–	–
Oc1ccc(CNC23CC4CC(CC2C4)C3)c(O)c1 [Example 111, 4-[(Hexahydro-2,5-methano-pentalen-3a-ylamino)-methyl]-benzene-1,3-diol]	–	–	A (key: (A)=31-95%; (B)=0-30%)	B (key: (A)=31-95%; (B)=0-30%)
Nc1ncc(CNC23CC4CC(CC(C4)C2)C3)cn1 [Example 75, 5-(Adamantan-1-ylaminomethyl)-pyrimidin-2-ylamine]	–	–	B (key: (A)=31-95%; (B)=0-30%)	B (key: (A)=31-95%; (B)=0-30%)
COc1ccccc1CNC12CC3CC(CC(C3)C1)C2 [Example 29, Adamantan-1-yl-(2-methoxy-benzyl)-amine]	–	–	B (key: (A)=31-95%; (B)=0-30%)	B (key: (A)=31-95%; (B)=0-30%)
c1cc(C2CCCCC2)ccc1CNC12CC3CC(CC(C3)C1)C2 [Example 10a, Adamantan-1-yl-(4-cyclohexyl-benzyl)-amine]	A (key: (A)=31-95%; (B)=0-30%)	B (key: (A)=31-95%; (B)=0-30%)	–	–
Oc1ccccc1CNC12CC3CC(CC(C3)C1)C2 [Example 28, 2-(Adamantan-1-ylaminomethyl)-phenol]	–	–	B (key: (A)=31-95%; (B)=0-30%)	B (key: (A)=31-95%; (B)=0-30%)
c1cc(CNC23CC4CC(CC(C4)C2)C3)ccn1 [Example 73, Adamantan-1-yl-pyridin-4-ylmethyl-amine]	–	–	B (key: (A)=31-95%; (B)=0-30%)	B (key: (A)=31-95%; (B)=0-30%)
Oc1cccc(CNC23CC4CC(CC(C4)C2)C3)c1O [Example 64, 3-(Adamantan-1-ylaminomethyl)-benzene-1,2-diol]	–	–	B (key: (A)=31-95%; (B)=0-30%)	A (key: (A)=31-95%; (B)=0-30%)
F[B-](F)(F)c1ccc(CNC23CC4CC(CC(C4)C2)C3)cc1.[K+] [Example 2a]	B (key: (A)=31-95%; (B)=0-30%)	A (key: (A)=31-95%; (B)=0-30%)	–	–

Compound	S31N OOcyte Inhibition at 100 uM (%) [1]	V27A OOcyte Inhibition at 100 uM (%) [2]	S31N OOcyte Inhibition at 100 uM (%) ([1]; pH 5.5)	V27A OOcyte Inhibition at 100 uM (%) ([2]; pH 5.5)
Oc1cccc(CNC23CC4CC(CC(C4)C2)C3)c1 [Example 31, 3-(Adamantan-1-ylaminomethyl)-phenol]	–	–	B (key: (A)=31-95%; (B)=0-30%)	A (key: (A)=31-95%; (B)=0-30%)
COc1ccc2cc(CNC34CC5CC(CC(C5)C3)C4)sc2c1 [Example 185a, N-((6-methoxybenzo[b]thiophen-2-yl)methyl)adamantan-1-amine]	A (key: (A)=31-95%; (B)=0-30%)	B (key: (A)=31-95%; (B)=0-30%)	–	–
COc1cc(Cl)sc1CNC12CC3CC(CC(C3)C1)C2 [Example 80a]	B (key: (A)=31-95%; (B)=0-30%)	B (key: (A)=31-95%; (B)=0-30%)	–	–
Oc1cc(F)c(CNC23CC4CC(CC(C4)C2)C3)c(F)c1 [Example 69, 4-(Adamantan-1-ylaminomethyl)-3,5-difluoro-phenol]	–	–	B (key: (A)=31-95%; (B)=0-30%)	A (key: (A)=31-95%; (B)=0-30%)
c1ccc2nc(CNC34CC5CC(CC(C5)C3)C4)ccc2c1 [Example 56a, Adamantan-1-yl-quinolin-2-ylmethyl-amine]	A (key: (A)=31-95%; (B)=0-30%)	B (key: (A)=31-95%; (B)=0-30%)	–	–
Brc1ccc(CNC23CC4CC(CC(C4)C2)C3)s1 [Example 81a, N-((5-Bromothiophen-2-yl)methyl)adamantan-1-amine]	A (key: (A)=31-95%; (B)=0-30%)	B (key: (A)=31-95%; (B)=0-30%)	–	–
c1cn(-c2ccc(CNC34CC5CC(CC(C5)C3)C4)cc2)cn1 [Example 36, Adamantan-1-yl-(4-imidazol-1-yl-benzyl)-amine]	–	–	B (key: (A)=31-95%; (B)=0-30%)	B (key: (A)=31-95%; (B)=0-30%)
CSc1ccc(CNC23CC4CC(CC(C4)C2)C3)cc1 [Example 23, Adamantan-1-yl-(4-methylsulfanyl-benzyl)-amine]	–	–	A (key: (A)=31-95%; (B)=0-30%)	B (key: (A)=31-95%; (B)=0-30%)
Oc1ccc2[nH]c(CNC34CC5CC(CC(C5)C3)C4)cc2c1 [Example 179a]	B (key: (A)=31-95%; (B)=0-30%)	B (key: (A)=31-95%; (B)=0-30%)	–	–
COc1ccc(CNC23CC4CC(CC(C4)C2)C3)cc1O [Example 61, 5-(Adamantan-1-ylaminomethyl)-2-methoxy-phenol]	–	–	B (key: (A)=31-95%; (B)=0-30%)	A (key: (A)=31-95%; (B)=0-30%)
CC(=O)Oc1ccc(CNC23CC4CC(CC(C4)C2)C3)cc1 [Example 33, Acetic acid 4-(adamantan-1-ylaminomethyl)-phenyl ester]	–	–	A (key: (A)=31-95%; (B)=0-30%)	B (key: (A)=31-95%; (B)=0-30%)
OC12CC3CC(C1)CC(NCc1cccs1)(C3)C2 [Example 187a, 3-[(Thiophen-2-ylmethyl)-amino]adamantan-1-ol]	A (key: (A)=31-95%; (B)=0-30%)	B (key: (A)=31-95%; (B)=0-30%)	–	–
Cc1nc(-c2ccc(CNC34CC5CC(CC(C5)C3)C4)s2)cs1 [Example 156a, N-((5-(2-methylthiazol-4-yl)thiophen-2-yl)methyl)adamantan-1-amine]	A (key: (A)=31-95%; (B)=0-30%)	A (key: (A)=31-95%; (B)=0-30%)	–	–
CC(C)(C)c1ccc(CNC23CC4CC(CC(C4)C2)C3)cc1 [Example 7a, N-(4-(tert-Butyl)benzyl)adamantan-1-amine methanesulfonate]	A (key: (A)=31-95%; (B)=0-30%)	B (key: (A)=31-95%; (B)=0-30%)	–	–
N#Cc1ccc(CNC23CC4CC(CC(C4)C2)C3)cc1 [Example 14, 4-(Adamantan-1-ylaminomethyl)-benzonitrile]	–	–	B (key: (A)=31-95%; (B)=0-30%)	B (key: (A)=31-95%; (B)=0-30%)
Oc1cc(-c2cc3ccccc3o2)ccc1CNC12CC3CC(CC(C3)C1)C2 [Example 48a]	B (key: (A)=31-95%; (B)=0-30%)	B (key: (A)=31-95%; (B)=0-30%)	–	–
CC(=O)c1sccc1-c1ccc(CNC23CC4CC(CC(C4)C2)C3)cc1 [Example 43, 1-(3-(4-((Adamantan-1-ylamino)methyl)phenyl)thiophen-2-yl)ethanone]	–	–	A (key: (A)=31-95%; (B)=0-30%)	A (key: (A)=31-95%; (B)=0-30%)
c1cc(COc2ccc(CNC34CC5CC(CC(C5)C3)C4)cc2)co1 [Example 22, Adamantan-1-yl-[4-(furan-3-ylmethoxy)-benzyl]-amine]	–	–	A (key: (A)=31-95%; (B)=0-30%)	B (key: (A)=31-95%; (B)=0-30%)
